Data published in patent publication US20120282167A1, “METHOD FOR PREDICTING THE SENSITIVITY OF A TUMOR TO AN EPIGENETIC TREATMENT” (INSTITUT CURIE, priority 2009, published 2012).

Experiments:
Format in all cases: cell-based, human
[1] = system: genes located in the regions of downregulation in cell line CL1207; experiment: Re-expression of genes in the regions of downregulation, RT-qPCR, CL1207 cell line; conditions: for re-expression of genes in downregulated regions 2-7, 3-2, 3-5, 7-2, 14-1, 19-3A and 19-3B: 300 nM TSA 16 hours, 5 μM 5-aza-deoxycytidine 72 hours, or 5 μM 5-aza-deoxycytidine 48 hours followed by 300 nM TSA 10 hours; for re-expression of genes in regions 6-7 and 17-7: same treatments, effect if fold-change >1.5
From the text: FIG. 3: […] The treatments were scored as having an effect (resulting in re-expression) if the fold-change between treated and non-treated was greater than 1.5. […] With both methods, all samples were run in duplicate. For all experiments involving […] and CL1207 both methods were used.

[2] = system: cell lines with the RES phenotype (TCCSUP, HT1376, JMSU1 and CL1207); experiment: Trichostatin A sensitivity assay (living cells counted after 72 hours, treated versus non-treated); conditions: on average for TCCSUP, doses 100 nM to 500 nM, read-out: IC50 (half maximal inhibitory concentration), growth inhibition
Procedure: (§1) FIG. 13: Cell viability after treatment with various doses of trichostatin A in bladder cancer cell lines with or without the RES phenotype and NHU cells. The percentage of surviving treated versus non-treated cells as a function of TSA concentration for various bladder cancer (MGHU3, RT112, T24, TCCSUP, HT1376, JMSU1, CL1207) and normal (NHU) cell lines is indicated. The number of cells surviving post treatment with TSA for 72 hours was counted and compared to control (no treatment) cultures. Cell lines with the RES phenotype are indicated with full symbols (TCCSUP, HT1376, JMSU1, CL1207) whereas cell lines without the RES phenotype (NHU, MGHU3, RT112, T24) are indicated with empty symbols. The error bars indicate the mean variation between two independent experiments.
(§2) All bladder cancer and NHU cell lines were seeded in 12-well plates at a density of 5×10^4 cells/well. Cultures were treated the next day, in duplicate, with various doses of trichostatin A, from 100 nM to 500 nM, with two wells left untreated. After 72 hours, the living cells in each treated well were harvested and counted and compared to the numbers of cells in the non-treated wells. The resulting ratio was used to assess sensitivity to trichostatin A.
(§3) The RES phenotype was characterized by strong histone K9 and K27 methylation and K9 hypoacetylation, but extremely rare DNA methylation. […]

[3] = system: cell lines without the RES phenotype (MGHU3, RT112 and T24) and NHU cells; experiment: as above; conditions: doses 100 nM to 500 nM, read-out: IC50 (half maximal inhibitory concentration), growth inhibition
Procedure: as §1, §2, §3

[4] = system: H3K9me3, H3K27me3 and H3K9ac at gene promoters in CL1207 cells; experiment: Chromatin immunoprecipitation (ChIP) of histone modifications in CL1207 before and after TSA; conditions: 300 nM TSA for 16 h
From the text: FIG. 5: Analyses of epigenetic modifications in regions 2-7 and 19-3A (a) Schematic map of region 2-7 (not to scale) with CpG islands, according to the UCSC browser. The number of CpG in each island is indicated. (b) DNA methylation analyses for region 2-7: bisulfite sequencing analyses for CpG 141 and CpG 39 covering a promoter region. In each case, T1207 DNA, CL1207 DNA, NHU DNA and SssI-methylated DNA (“Met. DNA”) were studied. Each row represents an individual clone, and each box (methylated in black, unmethylated in white) represents an individual CpG site. The curved arrows indicate the transcription start sites. (c) ChIP assays were performed for promoters in region 2-7 with antibodies against trimethyl H3K9 (left panel), trimethyl H3K27 (middle panel) and acetyl H3K9 (right panel). […] (d) Schematic map of region 19-3A with CpG islands. (e) ChIP analyses for region 19-3A as in (c).
FIG. 6: Analyses of epigenetic modifications in region 3-2. (a) Schematic map of region 3-2 (not to scale) with CpG islands, according to the UCSC browser. The number of CpGs in each island is indicated. (b) DNA methylation analyses for region 3-2: bisulfite sequencing analyses for the three CpGs covering a promoter region: CpG 74, 59 and 68. In each case, DNA from T1207, CL1207 and NHU and SssI-methylated DNA (“Met. DNA”) were studied. Each row represents an individual clone and each box represents an individual CpG site. A black box indicates methylation and a white box no methylation. The curved arrows indicate the transcription start sites. (c) Methylation analysis of DLEC1 promoter by bisulfite sequencing in five tumor samples showing downregulation of region 3-2: T195, T259, T447, T910 and T1448. […]
Chromatin immunoprecipitation (ChIP) assays were carried out in duplicate in three 150 cm^2 dishes for untreated CL1207, CL1207 treated with 300 nM TSA for 16 h, TCCSUP, RT112 and NHU cells. […] The amount of immunoprecipitated target was determined by real-time PCR, in duplicate, using the ABI PRISM 7900HT Sequence Detection System. […]

[5] = system: genes within the seven epigenetic regions in TCCSUP, HT1376 and JMSU1 cells; experiment: Re-expression of genes of the seven RES regions after TSA, RT-qPCR (TLDA), cell lines TCCSUP, HT1376 and JMSU1
Procedure: (§4) FIG. 10: Characterization of the regional epigenetic phenotype in bladder cancer cell lines. (a) Comparison of mRNA expression for genes in region 2-7 before and after treatment with TSA in bladder cancer cell lines and NHU cells; results obtained for the CL1207 cells (from FIG. 3) are also shown. Transcript values were measured by RT-qPCR using TLDA (see Materials and Methods in experimental section). The ratio between treated and non-treated cells is shown. Error bars represent the variation between the means of two independent experiments of TSA treatment. (b) Same comparison for region 3-2. (c) Same comparison for region 19-3A. (d) Summary of the effects of TSA treatment on all bladder cancer and NHU cell lines studied. Only groups of genes in which at least two genes were re-expressed after treatment are considered (see FIG. 11). (e) ChIP analysis in TCCSUP and RT112 cells for regions 2-7, 3-2 and 19-3A, with an antibody against trimethyl residues on lysine 9 of histone 3.
(§5) FIG. 11: Comparison of the mRNA levels of the genes in regions 3-5, 7-2, 14-1 and 19-3B in bladder cancer and normal cells before and after treatment with TSA. mRNA levels were assessed by RT-qPCR using TLDA (see Materials and Methods in experimental section). The ratio between treated versus non-treated cells is shown. Error bars represent the variation between two independent experiments. […]

[6] = system: genes within the seven epigenetic regions in NHU, MGHU3, RT112 and T24 cells; experiment: Re-expression of genes of the seven RES regions after TSA, RT-qPCR (TLDA), NHU, MGHU3, RT112 and T24
Procedure: as §4, §5

[7] = most of the genes in all three regions

| IC50 [2] | IC50 [3] | Structure (SMILES) | gene re-expression in repressed regions on chromosome 3 (VILL to ACAA1) and 2 (HOXD8 to HOXD1) ([1]; compared with TSA, effect if ratio >1.5) | re-expression of genes in downregulated regions 2-7, 3-2, 3-5, 7-2, 14-1, 19-3A and 19-3B ([1]; effect if ratio >1.5) | genes re-expressed after 5-aza-deoxycytidine treatment alone ([1]; BSN (3-5), SKAP2, HOXA4, HOXA5 (7-2), EFS, AP1G2 (14-1), 5 μM, 72 hours) | re-expression of genes in regions 6-7 and 17-7 [1] | H3K9 and H3K27 trimethylation at promoters of BSN, HOXA1, DHRS2 and JAK3 (regions 3-5, 7-2, 14-1, 19-3B) [4] | levels of active mark (H3K9ac) at promoters, regions 2-7, 3-2 and 19-3A [4, 7] | levels of inactive marks (H3K9me3, H3K27me3) at promoters, regions 2-7, 3-2 and 19-3A [4, 7] | re-expression of the regions in TCCSUP cell line ([5]; TCCSUP, TSA treatment) | re-expression of genes within the seven epigenetic regions ([5]; second group: TCCSUP, HT1376 and JMSU1, 300 nM TSA 16 hours) | re-expression of the regions in RT112 cells ([6]; RT112, TSA treatment) | re-expression of genes within the seven epigenetic regions ([6]; first group: NHU, MGHU3, RT112 and T24, 300 nM TSA 16 hours) |
| --- | --- | --- | --- | --- | --- | --- | --- | --- | --- | --- | --- | --- | --- |
| – | – | Nc1ccccc1NC(=O)c1ccc(CNC(=O)OCc2cccnc2)cc1 [MS275] | enabled gene re-expression in the studied regions as well as did TSA | – | – | – | – | – | – | – | – | – | – |
| – | – | Nc1ncn([C@H]2C[C@H](O)[C@@H](CO)O2)c(=O)n1 [5-aza-deoxycytidine] | – | reexpression of most of the genes in seven regions | re-expressed | either to no re-expression or re-expression of only one isolated gene | – | – | – | – | – | – | – |
| 100 nM | 500 nM | CC(/C=C/C(=O)NO)=C\[C@@H](C)C(=O)c1ccc(N(C)C)cc1 [TSA, trichostatin A] | – | reexpression of most of the genes in seven regions | – | either to no re-expression or re-expression of only one isolated gene | these marks were decreased | increased the levels of the active mark | decreased the levels of the inactive marks | all regions were re-expressed | gene re-expression was observed for most of the silenced regions after treatment | no region was re-expressed, except two genes in region 7-2 | most of the genes were not re-expressed, except for a few isolated genes in some cell lines |
